Test results published in patent publication US20250333745A1, “METHODS AND COMPOSITIONS FOR TREATMENT OF POLYCYSTIC KIDNEY DISEASE” (Regulus Therapeutics Inc., priority 2016, published 2025).

Columns and labels:
[1] = Pharmacokinetic profile after three 10 mg/kg subcutaneous injections in C57BL6 and JCK mice; format: in vivo, mouse; details: three 10 mg/kg s.c.; for % Parent: after 21 days
Method: The pharmacokinetic behavior of RG4326 was further characterized in wild type (C57B16) mice and PKD (JCK) mice. Groups of 5 mice each received three 10 mg/kg subcutaneous injections on each of three consecutive days. At one, four, seven, 14 and 21 days after the third and final injection, mice were sacrificed and plasma, kidney and liver samples were collected. For measurement of RG4326, RG4326 was extracted using liquid-liquid extraction (LLE) and/or solid-phase extraction (SPE), which was then analyzed for identity and concentration using ion-pairing-reversed-phase high performance liquid chromatography coupled with time-of-flight mass spectrometry (IP—RP-HPLC-TOF).

[2] = Biochemical fluorescent binding assay (FBA); details: fold change relative to control-treated samples
Method: In in vitro assays, the potential for toxicity was assessed using a biochemical fluorescent binding assay (FBA) and a liver or kidney slice assay. The FBA is performed by incubating a fluorescent dye with each compound, and immediately measuring fluorescence. Highly fluorescent compounds have the potential to produce toxicity in vivo. The liver or kidney slice assay is performed by incubating a slice of tissue from a core liver sample isolated from rat. Following a 24-hour incubation, RNA is extracted from the tissue slice, and the expression levels of 18 pro-inflammatory genes are measured. An induction in pro-inflammatory gene expression indicates a potential for pro-inflammatory effects in vivo.
The potential for toxicity was assessed using a biochemical fluorescent binding assay (FBA). The FBA is performed by incubating a fluorescent dye with each compound, and immediately measuring fluorescence. Results are expressed as fold change (Linear FC) relative to control-treated samples. Highly fluorescent compounds have the potential to produce toxicity in vivo.

COC1C(OP(=O)(S)OC[C@H]2O[C@@H](n3cnc4c(N)ncnc43)C(F)C2OP(=O)(S)OC[C@H]2O[C@@H](n3ccc(N)nc3=O)C(F)C2OP(=O)(S)OC[C@H]2O[C@@H](n3ccc(=O)[nH]c3=O)C(F)C2OP(=O)(S)OC[C@H]2O[C@@H](n3ccc(=O)[nH]c3=O)C(OC)C2OP(=O)(S)OC[C@]23O[C@@H](n4ccc(=O)[nH]c4=O)C(O[C@H]2C)C3OP(=O)(S)OC[C@]23O[C@@H](n4cnc5c(=O)[nH]c(N)nc54)C(O[C@H]2C)C3O)[C@@H](COP(=O)(S)OC2C3O[C@@H](C)[C@]2(COP(=O)(S)OC2C4O[C@@H](C)[C@]2(CO)O[C@H]4n2cnc4c(N)ncnc42)O[C@H]3n2cnc3c(=O)[nH]c(N)nc32)O[C@H]1n1ccc(N)nc1=O (stereo in doubt) [RG4326, ASGSCMAFCFUFUMUSGS]
AUC0-21 days ([1]; Normal C57BL6 mice, Kidney): 282 µg·days/g | C24 h ([1]; Normal C57BL6 mice, Kidney): 61.4 µg/g | % Parent ([1]; Normal C57BL6 mice, Kidney): >90% | AUC0-21 days ([1]; Normal C57BL6 mice, Liver): 17 µg·days/g | C24 h ([1]; Normal C57BL6 mice, Liver): 1.6 µg/g | % Parent ([1]; Normal C57BL6 mice, Liver): >90% | K/L Ratio (AUC) ([1]; Normal C57BL6 mice): 17 | K/L Ratio (C24 h) ([1]; Normal C57BL6 mice): 38 | AUC0-21 days ([1]; PKD JCK mice, Kidney): 497 µg·days/g | C24 h ([1]; PKD JCK mice, Kidney): 66.5 µg/g | % Parent ([1]; PKD JCK mice, Kidney): >90% | AUC0-21 days ([1]; PKD JCK mice, Liver): 37 µg·days/g | C24 h ([1]; PKD JCK mice, Liver): 5.9 µg/g | % Parent ([1]; PKD JCK mice, Liver): >90% | K/L Ratio (AUC) ([1]; PKD JCK mice): 13 | K/L Ratio (C24 h) ([1]; PKD JCK mice): 11 | parent compound remaining after 21 days ([1]; both plasma and tissues, C57B16 and JCK mice): over 90% | Biochemical Fluorescence Binding Assay Relative Fluorescence Unit (Linear FC) [2]: 24.9 ± 3.1 Linear FC
